According to patent US8673882B2, “Inhibitors of autotaxin” (University of Tennessee Research Foundation, priority 2011, dated 2014):

target: T1, NPP6 (Homo sapiens, UniProt Q6UWR7); assay: NPP-6 inhibition assay (pNPPC substrate); format: biochemical; details: 10 μM compound; 8.3 nM enzyme; 10 μM pNPPC; read-out: NPP6 Activity, % control (10 μM)
T1 sequence (Q6UWR7 23-419): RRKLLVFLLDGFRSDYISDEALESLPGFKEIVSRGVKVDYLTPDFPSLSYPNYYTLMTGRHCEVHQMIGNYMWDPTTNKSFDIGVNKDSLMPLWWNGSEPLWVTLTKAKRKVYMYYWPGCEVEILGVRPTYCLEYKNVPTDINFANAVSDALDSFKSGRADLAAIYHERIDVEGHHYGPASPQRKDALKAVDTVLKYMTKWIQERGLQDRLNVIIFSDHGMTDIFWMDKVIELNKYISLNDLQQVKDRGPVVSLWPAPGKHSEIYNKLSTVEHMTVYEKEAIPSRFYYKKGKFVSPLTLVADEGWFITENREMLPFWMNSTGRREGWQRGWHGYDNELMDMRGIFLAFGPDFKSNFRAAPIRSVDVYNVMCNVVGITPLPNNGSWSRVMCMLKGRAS
Experimental: (§1) NPP6 and NPP7 are the only NPP isoforms other than ATX that are known to utilize lysophospholipid phosphodiesters as substrates. Therefore, the specificity of the chemical compounds of the invention regarding ATX was addressed by determining the activity of NPP6 and NPP7 in the presence and absence of these analogs.
(§2) Inhibition of NPP6 and NPP7 was evaluated using recombinant, purified proteins, the synthetic substrate para-nitrophenylphosphocholine (pNPPC) and a Synergy II plate reader (BioTek, Winooski, Vt.). The final concentration of each enzyme was 8.3 nM and pNPPC was 10 μM. All analogs were tested at single 10 μM concentrations. Absorbance of liberated para-nitrophenol at 405 nm was determined up to 1 hour (where responses were linear) and was normalized to vehicle control.

| SMILES | remaining activity at 10 µM [%] |
| --- | --- |
| CCCCCCCCCCCCCCCCS(=O)(=O)Nc1ccc(CP(=O)(O)O)cc1 [Compound 4, 4-(Hexadecane-1-sulfonylamino)benzyl phosphonic acid] | 102 |
| CCCCCCCCCCCCCCOc1ccc(CP(=O)(O)O)cc1 [Compound 10, 4-(Tetradecyloxy)benzylphosphonic acid] | 102 |
| CCCCCCCCCCCCC/C=C/c1ccc(CP(=O)(O)O)cc1 [Compound 18, (E)-4-(Pentadec-1-enyl)benzylphosphonic acid] | 104 |
| CCCCCCCCCCCCCCCc1ccc(C(O)P(=O)(O)O)cc1 (stereo not shown) [Compound 37, Hydroxy-4-pentadecylphenylmethylphosphonic acid] | 99.6 |
| CCCCCCCCCCCCCCCc1ccc(C(F)P(=O)(O)O)cc1 (stereo not shown) [Compound 41, Fluoro-4-pentadecylphenylmethyl phosphonic acid] | 101 |
| CCCCCCCCCCCCCCCc1ccc(C(Cl)P(=O)(O)O)cc1 (stereo not shown) [Compound 42, Chloro-4-pentadecylphenylmethyl phosphonic acid] | 101 |
| CCCCCCCCCCCCCCCc1ccc(C(Br)P(=O)(O)O)cc1 (stereo not shown) [Compound 43, Bromo-4-pentadecylphenylmethyl phosphonic acid] | 99.3 |
| CCCCCCCCCCCCCCCc1ccc(COP(=O)(O)O)cc1 [Compound 45, 4-pentadecylbenzyl dihydrogen phosphate] | 101 |
| CCCCCCCCCCCCCCCc1ccc(COP(O)(O)=S)cc1 [Compound 47, O-4-pentadecylbenzyl O,O-dihydrogen phosphorothioate] | 98.8 |
| CCCCCCCCCCCCCC(=O)Nc1ccc(CP(=O)(O)O)cc1 [Compound S32826, 4-tetradecanoylaminobenzyl phosphonic acid, reference compound] | 102 |

Further lines, results first:

| remaining activity at 10 µM [%] | SMILES |
| --- | --- |
| 103 | CCCCCCCCCC/C=C/c1ccc2cc(CP(=O)(O)O)ccc2c1 [Compound 30a, (E)-6-Dodec-1-enyl-naphthalen-2-yl-methylphosphonic acid] |
| 101 | CCCCCCCCCCCCc1ccc2cc(CP(=O)(O)O)ccc2c1 [Compound 34a, 6-Dodecylnaphthalen-2-yl-methylphosphonic acid] |
| 100 | CCCCCCCCCCCCCc1ccc2cc(CP(=O)(O)O)ccc2c1 [Compound 34b, 6-Tridecylnaphthalen-2-yl-methylphosphonic acid] |

target: recombinant human ATX (Homo sapiens, UniProt Q13822); assay: Autotaxin inhibition screening assay (FS-3 FRET substrate); format: biochemical; details: 10 μM compound; 2 nM recombinant human ATX; 1 μM FS-3; 2 h, 37° C.; read-out: ATX Activity, % control (10 μM)
Experimental: A 10 μM concentration of the compound is added to 2 nM recombinant human ATX and the FRET (Fluorescence Resonance Energy Transfer) ATX substrate FS-3.
As the first level of screen, 50 μl of recombinant-ATX (2 nM in final concentration) in assay buffer [(Tris 50 mM, NaCl 140 mM, KCl 5 mM, CaCl2 1 mM, MgCl2 1 mM (pH 8.0)] was mixed with 25 μL of FS-3 (Echelon Biosciences, Inc., Salt lake city, Utah), final concentration 1 μM, and 25 μl of test compound was dissolved in assay buffer with 40 μM bovine serum albumin (Sigma, St. Louis, Mo.) in 96-well Costar black-well plate. FS-3 fluorescence at excitation and emission wavelengths of 485 and 538 nm, respectively, were monitored using a FLEXstation II (Molecular Devices, Sunnyvale, Calif.) for 2 h of incubation at 37° C. The differences between time 0 and 120 min were calculated individually and normalized to the vehicle control. The mean±SD of triplicate samples was expressed as percentage of ATX activity. The ATX activity in the presence of the test compounds was compared to vehicle using the […] p<0.05 was considered significant.
The first level of testing was done using 10 μM concentrations of the compounds shown in Tables 1 and 2 added to 2 nM recombinant human ATX and the FRET substrate FS-3. After a 2 h incubation the amount of FS3 hydrolyzed was measured and the residual ATX activity was expressed as a percent of the vehicle-treated sample less the autolysis of FS3 in the absence of ATX.

| SMILES | remaining activity at 10 µM [%] |
| --- | --- |
| CCCCCCCCCCCCCCCCS(=O)(=O)Nc1ccc(CP(=O)(O)O)cc1 [Compound 4, 4-(Hexadecane-1-sulfonylamino)benzyl phosphonic acid] | 24.1 |
| CCCCCCCCCCCCC/C=C/c1ccc(CP(=O)(O)O)cc1 [Compound 18, (E)-4-(Pentadec-1-enyl)benzylphosphonic acid] | 18.8 |
| CCCCCCCCCCCCCCCc1ccc(C(O)P(=O)(O)O)cc1 (stereo not shown) [Compound 37, Hydroxy-4-pentadecylphenylmethylphosphonic acid] | 9.2 |
| CCCCCCCCCCCCCCCc1ccc(C(F)P(=O)(O)O)cc1 (stereo not shown) [Compound 41, Fluoro-4-pentadecylphenylmethyl phosphonic acid] | 42.3 |
| CCCCCCCCCCCCCCCc1ccc(C(Cl)P(=O)(O)O)cc1 (stereo not shown) [Compound 42, Chloro-4-pentadecylphenylmethyl phosphonic acid] | 118 |
| CCCCCCCCCCCCCCCc1ccc(C(Br)P(=O)(O)O)cc1 (stereo not shown) [Compound 43, Bromo-4-pentadecylphenylmethyl phosphonic acid] | 60.1 |
| CCCCCCCCCCCCCCCc1ccc(COP(=O)(O)O)cc1 [Compound 45, 4-pentadecylbenzyl dihydrogen phosphate] | 85.2 |

Further lines, results first:

| remaining activity at 10 µM [%] | SMILES |
| --- | --- |
| 61.3 | CCCCCCCCCC/C=C/c1ccc2cc(CP(=O)(O)O)ccc2c1 [Compound 30a, (E)-6-Dodec-1-enyl-naphthalen-2-yl-methylphosphonic acid] |
| 19.9 | CCCCCCCCCCCCc1ccc2cc(CP(=O)(O)O)ccc2c1 [Compound 34a, 6-Dodecylnaphthalen-2-yl-methylphosphonic acid] |
| 50.8 | CCCCCCCCCCCCCc1ccc2cc(CP(=O)(O)O)ccc2c1 [Compound 34b, 6-Tridecylnaphthalen-2-yl-methylphosphonic acid] |

target: recombinant, purified human ATX (Homo sapiens, UniProt Q13822); assay: Mechanism of autotaxin inhibition (IC50, Ki, Ki′; FS-3 hydrolysis); format: biochemical; details: 8.3 nM ATX, 1 μM FS-3, 15 μM BSA
Experimental: The mechanism of inhibition of ATX was determined using recombinant, purified human ATX and FS-3. Final ATX and FS-3 concentrations were 8.3 nM and 1 μM, respectively and the assay buffer with 15 μM fatty acid tree BSA. To calculate IC50, full dose responses were determined for the test compounds. […] Simultaneous non-linear regression, using, WinNonLin® 6.1 (Pharsight, Mountain View, Calif.) was used to assign the mechanism of inhibition. Ki and Ki′ values (the affinity for free enzyme and enzyme substrate complex, respectively) were determined by calculating the lowest averaged percent residuals for each mechanism derived from curve fitting using the Michealis-Menten equations for competitive, uncompetitive, mixed-mode, and non-competitive inhibition.

| IC50 [µM] | SMILES |
| --- | --- |
| 0.73 | CCCCCCCCCCCCCCCc1ccc(C(O)P(=O)(O)O)cc1 (stereo not shown) [Compound 37, Hydroxy-4-pentadecylphenylmethylphosphonic acid] |
| 17.9 | CCCCCCCCCCCCCCCc1ccc(C(F)P(=O)(O)O)cc1 (stereo not shown) [Compound 41, Fluoro-4-pentadecylphenylmethyl phosphonic acid] |
| 10.1 | CCCCCCCCCCCCCCCc1ccc(C(Br)P(=O)(O)O)cc1 (stereo not shown) [Compound 43, Bromo-4-pentadecylphenylmethyl phosphonic acid] |

| SMILES | IC50 [µM] |
| --- | --- |
| CCCCCCCCCCCCCCCc1ccc(COP(O)(O)=S)cc1 [Compound 47, O-4-pentadecylbenzyl O,O-dihydrogen phosphorothioate] | 1.54 |

same assay, conditions: FS-3 0.3 μM to 20 μM; inhibitor 0, 0.5× and 2× IC50

| ATX Mechanism of inhibition | SMILES |
| --- | --- |
| Mixed | CCCCCCCCCCCCCCCc1ccc(C(O)P(=O)(O)O)cc1 (stereo not shown) [Compound 37, Hydroxy-4-pentadecylphenylmethylphosphonic acid] |
| Mixed | CCCCCCCCCCCCCCCc1ccc(C(F)P(=O)(O)O)cc1 (stereo not shown) [Compound 41, Fluoro-4-pentadecylphenylmethyl phosphonic acid] |
| Mixed | CCCCCCCCCCCCCCCc1ccc(C(Br)P(=O)(O)O)cc1 (stereo not shown) [Compound 43, Bromo-4-pentadecylphenylmethyl phosphonic acid] |

| SMILES | ATX Mechanism of inhibition |
| --- | --- |
| CCCCCCCCCCCCCCCc1ccc(COP(O)(O)=S)cc1 [Compound 47, O-4-pentadecylbenzyl O,O-dihydrogen phosphorothioate] | Mixed |

same assay, conditions: affinity for enzyme substrate complex

| Ki [µM] | SMILES |
| --- | --- |
| 0.7 | CCCCCCCCCCCCCCCc1ccc(C(O)P(=O)(O)O)cc1 (stereo not shown) [Compound 37, Hydroxy-4-pentadecylphenylmethylphosphonic acid] |
| 5.54 | CCCCCCCCCCCCCCCc1ccc(C(F)P(=O)(O)O)cc1 (stereo not shown) [Compound 41, Fluoro-4-pentadecylphenylmethyl phosphonic acid] |
| 2.97 | CCCCCCCCCCCCCCCc1ccc(C(Br)P(=O)(O)O)cc1 (stereo not shown) [Compound 43, Bromo-4-pentadecylphenylmethyl phosphonic acid] |

| SMILES | Ki [µM] |
| --- | --- |
| CCCCCCCCCCCCCCCc1ccc(COP(O)(O)=S)cc1 [Compound 47, O-4-pentadecylbenzyl O,O-dihydrogen phosphorothioate] | 4.43 |

same assay, conditions: affinity for free enzyme

| Ki [µM] | SMILES |
| --- | --- |
| 0.45 | CCCCCCCCCCCCCCCc1ccc(C(O)P(=O)(O)O)cc1 (stereo not shown) [Compound 37, Hydroxy-4-pentadecylphenylmethylphosphonic acid] |
| 4.97 | CCCCCCCCCCCCCCCc1ccc(C(F)P(=O)(O)O)cc1 (stereo not shown) [Compound 41, Fluoro-4-pentadecylphenylmethyl phosphonic acid] |
| 6.1 | CCCCCCCCCCCCCCCc1ccc(C(Br)P(=O)(O)O)cc1 (stereo not shown) [Compound 43, Bromo-4-pentadecylphenylmethyl phosphonic acid] |

| SMILES | Ki [µM] |
| --- | --- |
| CCCCCCCCCCCCCCCc1ccc(COP(O)(O)=S)cc1 [Compound 47, O-4-pentadecylbenzyl O,O-dihydrogen phosphorothioate] | 4.45 |

target: T2, NPP7 (Homo sapiens, UniProt Q6UWV6); assay: NPP-7 inhibition assay (pNPPC substrate); format: biochemical; details: 10 μM compound; 8.3 nM enzyme; 10 μM pNPPC; read-out: NPP7 Activity, % control (10 μM)
T2 sequence (Q6UWV6 22-458): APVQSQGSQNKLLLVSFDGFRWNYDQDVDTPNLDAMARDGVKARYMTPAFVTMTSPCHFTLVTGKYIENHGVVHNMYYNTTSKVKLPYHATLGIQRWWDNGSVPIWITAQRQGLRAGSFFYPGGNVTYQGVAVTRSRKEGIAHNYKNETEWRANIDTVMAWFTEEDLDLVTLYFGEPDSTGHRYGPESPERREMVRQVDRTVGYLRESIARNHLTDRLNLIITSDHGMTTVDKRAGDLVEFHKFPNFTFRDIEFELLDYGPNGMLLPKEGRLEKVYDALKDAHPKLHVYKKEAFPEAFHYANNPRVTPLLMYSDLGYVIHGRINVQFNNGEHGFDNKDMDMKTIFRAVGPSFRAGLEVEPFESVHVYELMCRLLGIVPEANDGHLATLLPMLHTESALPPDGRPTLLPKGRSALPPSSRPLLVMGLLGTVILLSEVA
Experimental: as §1, §2

| SMILES | remaining activity at 10 µM [%] |
| --- | --- |
| CCCCCCCCCCCCCCCCS(=O)(=O)Nc1ccc(CP(=O)(O)O)cc1 [Compound 4, 4-(Hexadecane-1-sulfonylamino)benzyl phosphonic acid] | 93.5 |
| CCCCCCCCCCCCCCOc1ccc(CP(=O)(O)O)cc1 [Compound 10, 4-(Tetradecyloxy)benzylphosphonic acid] | 101 |
| CCCCCCCCCCCCC/C=C/c1ccc(CP(=O)(O)O)cc1 [Compound 18, (E)-4-(Pentadec-1-enyl)benzylphosphonic acid] | 97.7 |
| CCCCCCCCCCCCCCCc1ccc(C(O)P(=O)(O)O)cc1 (stereo not shown) [Compound 37, Hydroxy-4-pentadecylphenylmethylphosphonic acid] | 101 |
| CCCCCCCCCCCCCCCc1ccc(C(F)P(=O)(O)O)cc1 (stereo not shown) [Compound 41, Fluoro-4-pentadecylphenylmethyl phosphonic acid] | 103 |
| CCCCCCCCCCCCCCCc1ccc(C(Cl)P(=O)(O)O)cc1 (stereo not shown) [Compound 42, Chloro-4-pentadecylphenylmethyl phosphonic acid] | 99.9 |
| CCCCCCCCCCCCCCCc1ccc(C(Br)P(=O)(O)O)cc1 (stereo not shown) [Compound 43, Bromo-4-pentadecylphenylmethyl phosphonic acid] | 99.5 |
| CCCCCCCCCCCCCCCc1ccc(COP(=O)(O)O)cc1 [Compound 45, 4-pentadecylbenzyl dihydrogen phosphate] | 98.8 |
| CCCCCCCCCCCCCCCc1ccc(COP(O)(O)=S)cc1 [Compound 47, O-4-pentadecylbenzyl O,O-dihydrogen phosphorothioate] | 92.9 |
| CCCCCCCCCCCCCC(=O)Nc1ccc(CP(=O)(O)O)cc1 [Compound S32826, 4-tetradecanoylaminobenzyl phosphonic acid, reference compound] | 101 |

Next, values leading:

| remaining activity at 10 µM [%] | SMILES |
| --- | --- |
| 100 | CCCCCCCCCC/C=C/c1ccc2cc(CP(=O)(O)O)ccc2c1 [Compound 30a, (E)-6-Dodec-1-enyl-naphthalen-2-yl-methylphosphonic acid] |
| 98.8 | CCCCCCCCCCCCc1ccc2cc(CP(=O)(O)O)ccc2c1 [Compound 34a, 6-Dodecylnaphthalen-2-yl-methylphosphonic acid] |
| 94.7 | CCCCCCCCCCCCCc1ccc2cc(CP(=O)(O)O)ccc2c1 [Compound 34b, 6-Tridecylnaphthalen-2-yl-methylphosphonic acid] |
